Reference: US20130172324A1, “METHOD FOR TREATING CARDIOVASCULAR DISEASES USING RHO KINASE INHIBITOR COMPOUNDS” (priority 2008, published 2013)
“Also recorded” adds a separate entry of the source.

How the values were obtained:
rat trachea rings = experiment: Tracheal relaxation assay (carbachol precontracted rings); conditions: for Percentage of carbachol-induced contraction at 1 μM compound, Avg % / Percentage of carbachol-induced contraction at 10 μM compound, Avg %: 1 μM carbachol; for IC50: Rattus norvegicus, read-out: IC50 Avg; for Trachael Ring Contraction, %: average percentage of carbachol-induced rat tracheal ring contraction at 1 μM of test compound;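 for all read-outs here: isometric tension of rat tracheal rings in Krebs buffer with 1 µM indomethacin, compounds added cumulatively at 30 min intervals, basal tension subtracted, fit to Hill equation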
[1] = test system: rat tracheal rings pretreated with vehicle or IL-1β and TNF-α; experiment: Effect of inflammatory cytokines on tracheal relaxation; conditions: FIG. 7
Procedure: Male Sprague-Dawley rats weighing 301-325 gm were sacrificed by asphyxiation in a CO2 chamber. Trachea were excised, cleaned of connective tissue and cut into cylindrical segments of 2-3 mm length. Tissues were treated for 18 hours at 37° C. in F12 media with penicillin-streptomycin and 0.1% BSA alone or with 10 ng/ml IL-1β and 100 ng/ml TNF-α. Tissues were then washed free of cytokines with Krebs buffer. Contractile tensions were measured using an isometric force transducer (Grass Instruments) as described for Example 3 and signals were analyzed using specialized software (Chart v5.5, ADInstruments). Tissues were treated with 300 nM carbachol for 10 to 15 minutes to induce a contractile response. Test Compounds were added cumulatively to the bath every 30 minutes and reductions in tension were recorded. Basal tension was subtracted from all values and data were reported as a percentage of the maximal carbachol-induced contraction. Data were fit to the Hill equation using GraphPad Prism v5 software.

[2] = test system: ova-sensitized, ova-challenged mice; experiment: Bronchodilator assay in ovalbumin-sensitized mice (Penh, methacholine); type: in vivo, mouse; conditions: for log10AUC (penh): bronchodilator dosing paradigm
Procedure: Male BALB/c mice were ordered from Charles River Laboratories (Raleigh, N.C.). The animals were approximately 19 to 21 grams at time of receipt. Upon arrival, the animals were randomized into groups of five males per cage and assigned to a dosing group. Animals were quarantined for 7 days under test conditions. They were observed daily for general health status and ability to adapt to the water bottles.
Animals were sensitized on day 0 and 14 of study by an intraperitoneal injection with 20 μg of ovalbumin (ova) and 2.0 mg aluminum hydroxide (alum) which initiates the development of a specific T-helper (Th) cells type 2 resulting in asthmatic animals. One group of animals received an injection of saline to use as non-asthmatic control animals. All animals were challenged with aerosolized 1% ova once daily for 25 minutes on days 28, 29, and 30 (Zosky, et al. Respiratory Research. 2004; 5:15). Aerosol challenge consists of using an Aerogen Aeroneb nebulizer and controller with a particle size of 4-6 μm mass median aerodynamic diameter (MMAD) with a distribution of 400 μl per minute. This aerosol challenge is necessary to target the Th2-driven allergic inflammation in the lower airways.
The test compounds and the control vehicle were administered to animals on the day of airway hyperreactivity evaluation 30 minutes to 1 hour before the evaluation to determine the bronchodilator effects of the compounds according to the bronchodilator dosing paradigm (FIG. 8). Compounds were administered p.o. (orally), i.p. (intraperitoneally) at 15 μMol/kg unless otherwise noted (Table 6). Alternatively, compounds were administered i.t. (intratracheally) at varying doses as shown (FIG. 9). On day 32 of the experiment, airway hyperreactivity was evaluated by placing conscious, unrestrained animals in a whole body plethysmometer (Buxco Wilmington, N.C.) and exposing them to escalating doses of nebulized methacholine, a known bronchial constrictor which acts through the muscarinic receptors of the lungs, (doses: 0.325-50 mg/ml). Exposure to the methacholine doses consisted of a 3 minute period during which a nebulizer was aerosolizing the methacholine and an additional 3 minute period following the cessation of nebulization. Over this 6 minute period, the plethysmometer monitors and generates numerical values for all parameters of the breath pattern. Enhanced pause (Penh), a unitless index of airway hyperreactivity, is derived from the expiratory side of the respiratory waveform measured via the plethysmograph and is used as an indirect measure of airway resistance and hyperreactivity. […] Following the methacholine dose response, all animals were anesthetized, bled and euthanized.
Within each experiment, a mouse was given a single compound and exposed to increasing doses of methacholine [0 (baseline), 0.375, 0.75, 1.5, 3, 6, 12, 25, 50 mg/ml]. The Penh value at each of the dose levels of methacholine represents the 6-minute average response. Change from baseline (CFB) in Penh was calculated at each methacholine dose and the area under the curve (AUC) for these CFB values was calculated using the trapezoidal rule. This same approach was applied for each mouse across multiple experiments.
For statistical analyses, a linear mixed-effects model where the response was the log 10 transformed value of AUC described above was used. Data from equal experimental conditions across experiments performed on different days were pooled for statistical analysis and data reporting. The various compounds were compared adjusting for the log 10-transformed baseline value of Penh and the chamber (1 of 10) of the plethysmometer each mouse was contained in during an experiment. A random intercept for each experiment was assumed to account for possible similarities of the results obtained from a given experiment (i.e., as a “blocking effect”). […] Computations were performed using PROC MIXED (SAS Version 9.1). […]

[3] = test system: ova-sensitized, ova-challenged mice; experiment: In vivo anti-inflammatory assay in ovalbumin-sensitized mice (BALF eosinophils and cytokines); design: species or system mouse
Excerpt: A mouse model of asthma via ovalbumin sensitization was created as described in Example 23. The anti-inflammatory dosing paradigm (FIG. 10) was utilized to evaluate the anti-inflammatory effects of experimental compounds. The anti-inflammatory dosing paradigm consists of dosing the animals once a day starting on day 27 and finishing on either day 30 or 31 (1 hr prior to the aerosolized ovalbumin challenges on days 28 to 30) but not on day 32 when hyperreactivity evaluation occurs.
Bronchoalveolar lavage fluid (BALF) was collected by infusing 3.0 ml of saline with 10% fetal calf serum into the lungs via the trachea and then withdrawing the fluid. The total amount of cells/ml of BALF fluid was determined via manual cell count on hemocytometer. The BALF was centrifuged, supernatant removed and analyzed for cytokine concentrations as described below, and cell pellet reconstituted in 500 μL of fluid. Cytospin slides were prepared from the cell pellet using 100 μL of fluid and spinning samples for 5 minutes at 5000 rpms in a cytospin centrifuge. Following Hema3 stain, relative percentages of individual leukocytes were determined on a 200 cell count for each sample. The final concentration of individual leukocyte cell types per ml of BALF was determined by multiplication of the relative percentage of individual leukocytes with the total amount of cells/ml of BALF fluid.
The concentrations of cytokines in the BALF samples were determined using commercially available Bio-plex kits (Bio-Rad) for the detection of mouse IL-5, IL-13, and Eotaxin. The analysis of cytokine levels was measured using the Bio-Plex 200 (Bio-Rad) system according to the manufacturer's instructions.

LPS-challenged mice = experiment: LPS-induced neutrophilia and cytokine production assay; type: in vivo, mouse; conditions: for IL-1β levels in BALF: intratracheal administration, LPS-challenged mice, FIG. 18
Procedure: Male BALB/c mice, approximately 19 to 21 grams, were ordered from Charles River Laboratories (Raleigh, N.C.). All animals were challenged with aerosolized LPS (10 μg/ml) for 25 minutes on study day 0. LPS aerosol was generated using an Aerogen Aeroneb nebulizer and controller providing a flow of 400 μl/min and a particle size of 2-4 μm MMAD. Rolipram was administered i.p at 20 mg/kg. […] Four hours following LPS challenge, BALF was collected using a total of 3 ml of 0.9% sodium chloride containing 10% fetal calf serum. Total cell counts were determined using the Coulter Counter. For differential evaluations, BALF was centrifuged and cytospin slides prepared and stained with Hema3 stain. Manual leukocyte counts were then completed on 200 cells. The final concentration of individual leukocyte cell types per ml of BALF was determined by multiplication of the relative percentage of individual leukocytes with the total amount of cells/ml of BALF fluid. The concentration of IL-1β in the BALF samples was determined using commercially available Bio-plex kits (Bio-Rad). The analysis of cytokine levels was measured using the Bio-Plex 200 (Bio-Rad) system according to the manufacturer's instructions.

[4] = Rat oral pharmacokinetics (plasma); type: in vivo
Procedure: Plasma (EDTA K2 anticoagulant) was collected from male, cannulated, CD Sprague Dawley rats to determine the pharmacokinetics of formulations containing compound inhibitors of Rho kinase. Each animal was dosed orally with a 4 ml/kg solution or suspension of each test compound in 10 mM acetate buffered saline, pH 4.5 at a final concentration range of 20-30 μmol/kg. Blood was collected at 0.25, 0.5, 1, 2, 4, 6, 8, and 24 hours. Plasma samples were assayed for the concentration of the test compound using an on-line, solid phase extraction LC/MS/MS analysis system.
Samples were analyzed on a QSTAR Elite, hybrid quadrupole time-of-flight mass spectrometer (Applied Biosystems, Framingham, Mass.) coupled with a Symbiosis Pharma integrated, on-line SPE-HPLC system (Spark Holland Inc., Plainsboro, N.J.). Analyst QS 2.0 software was used for instrument control, data acquisition and processing. […] Mobile Phase A consisted of 0.1% ammonium hydroxide in water and Mobile Phase B consisted of 0.1% formic acid in acetonitrile. Pharmacokinetic analyses were performed using WinNonlin software version 5.2 (Pharsight Corporation, Mountain View, Calif.).
As determined from the plasma concentration versus time curves, the time to peak and peak exposure are represented by the values Tmax and Cmax, respectively. The AUC values (nM*hr) shown were calculated as the areas under the plasma concentration versus time curves from time zero through the time of the last observable value and represent the total exposure of the compound over the course of the study. Half-life values or the amount of time required for the plasma levels of the compound to decline to half the initial value are represented as t1/2.

murine eosinophils = experiment: Eotaxin-induced murine eosinophil chemotaxis; type: cell-based, mouse; conditions: 10 nM eotaxin challenge; FIG. 1
Procedure: Bronchoalveolar lavage was collected from ovalbumin sensitized and challenged mice in a volume of 2.5 mL lavage buffer. The lavage buffer was 0.9% saline with 10% fetal bovine serum. The pooled lavages were maintained on ice until use. The murine eosinophils were isolated using MACS cell separation (Miltenyi Biotech) by depletion of B cells and T cells by positive selection following incubation with antibody conjugated magnetic beads specific for CD45-R (B220) and CD90 (Thy 1.2), which bind B cells and T cells, respectively.
Eosinophil chemotaxis was assessed using a modified Boyden Chamber (Neuroprobe, 96-well) with a 5 μm pore membrane. The ability of the tested compounds to block chemotaxis induced by a 10 nM eotaxin challenge (mouse) or 1 nM eotaxin challenge (human) during one hour incubation at 37° C. with 5% CO2 was assessed. Chemotaxis was quantified via microscopy by counting the number of migrated cells in at least 3 view fields per treatment.

human eosinophils = experiment: Eotaxin-induced human eosinophil chemotaxis; type: cell-based; conditions: 1 nM eotaxin challenge; FIG. 2
Excerpt: Peripheral blood from healthy human volunteers was collected and the PMNs separated via Ficoll-paque density centrifugation followed by hypotonic lysis of the red blood cells. Subsequently, the human eosinophils were isolated from the cell suspension via StemCell Technologies Human Eosinophil Enrichment kit (Cat. No 19256) according to the manufacturer's recommendations. Briefly, unwanted cells were specifically labeled with dextran-coated magnetic nanoparticles using bispecific Tetrameric Antibody Complexes (TAC) directed against cell surface antigens on human blood cells: […] The unwanted cells are then separated from the unlabelled eosinophils using the EasySep® magnetic isolation procedure.

[5] = test system: ova-sensitized, ova-challenged mice; experiment: Prevention of airway hyperreactivity development, anti-inflammatory dosing paradigm (Penh); type: in vivo, mouse
ERK1 = biological target: T1, ERK1 (Homo sapiens, UniProt P27361); experiment: Kinase panel screen (KinaseProfiler), ERK1; type: biochemical; conditions: 10 μM ATP
T1 construct: purchased Upstate, Millipore Bioscience Division (KinaseProfiler service)
Procedure: (§1) Compounds of Formulae I and II were examined for activity against a selected panel of kinases using the KinaseProfiler™ enzyme profiling services (Upstate, Millipore Bioscience Division). Percent kinase activity at 10 μM and 1 μM test compound and 10 μM ATP was determined against 40 wild-type recombinant human kinases according to Upstate's standard protocol: ASK1, BTK, CSK, c-RAF, GCK, GSK3β, IKKα, IKKβ, IRAK1, IRAK4, JNK1α1, JNK2α2, JNK3, ERK1, ERK2, MAPKAP-K2, MAPKAP-K3, MEK1, MKK4, MKK6, MKK7β, Mnk2, MSK1, PAK3, PDK1, PRAK, ROCK1, Rsk2, SAPK2a, SAPK2b, SAPK3, SAPK4, SRPK1, SRPK2, Syk, TAK1, TBK1, PI3-Kβ, PI3-Kγ, PI3-Kδ.

ERK2 = biological target: T2, ERK2 (Homo sapiens, UniProt P28482); experiment: Kinase panel screen (KinaseProfiler), ERK2; type: biochemical; conditions: 10 μM ATP
T2 construct: purchased Upstate, Millipore Bioscience Division (KinaseProfiler service)
Procedure: as §1

[6] = rat, oral, 20-30 μmol/kg, plasma, mean of n = 3

T1 sequence (P27361 whole entry): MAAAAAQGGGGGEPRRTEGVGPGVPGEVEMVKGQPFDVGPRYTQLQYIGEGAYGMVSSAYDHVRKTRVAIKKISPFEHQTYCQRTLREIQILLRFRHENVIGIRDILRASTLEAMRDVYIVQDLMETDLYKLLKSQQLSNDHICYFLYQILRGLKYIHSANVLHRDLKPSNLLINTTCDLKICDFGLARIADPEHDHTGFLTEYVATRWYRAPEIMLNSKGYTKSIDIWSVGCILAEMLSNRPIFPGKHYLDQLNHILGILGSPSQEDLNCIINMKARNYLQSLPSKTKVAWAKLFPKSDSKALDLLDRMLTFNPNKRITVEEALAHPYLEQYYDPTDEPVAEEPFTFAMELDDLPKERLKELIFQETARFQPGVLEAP
T2 sequence (P28482 whole entry): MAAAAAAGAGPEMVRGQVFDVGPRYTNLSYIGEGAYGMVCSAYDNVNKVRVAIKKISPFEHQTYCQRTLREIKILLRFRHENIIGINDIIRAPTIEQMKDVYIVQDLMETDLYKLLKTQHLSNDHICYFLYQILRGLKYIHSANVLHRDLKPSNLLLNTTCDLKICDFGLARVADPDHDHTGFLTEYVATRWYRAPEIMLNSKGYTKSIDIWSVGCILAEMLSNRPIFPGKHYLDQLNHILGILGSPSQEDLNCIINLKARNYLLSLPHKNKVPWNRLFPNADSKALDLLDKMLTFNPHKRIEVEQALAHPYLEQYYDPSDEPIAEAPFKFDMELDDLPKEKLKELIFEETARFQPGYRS

CS(=O)(=O)Nc1cccc(CN2CCC[C@H](Nc3ccc4[nH]ncc4c3)C2)c1 [Compound 1.091, (S)-N-(3-((3-(1H-indazol-5-ylamino)piperidin-1-yl)methyl)phenyl)methanesulfonamide]
Percentage of carbachol-induced contraction at 1 μM compound, Avg % (rat trachea rings): 35.4% | Percentage of carbachol-induced contraction at 10 μM compound, Avg % (rat trachea rings): 14.3% | IC50 (rat trachea rings): 103 nM | Trachael Ring Contraction, % (rat trachea rings): 35% | relaxation of tracheal rings, cytokine-pretreated tissues ([1]; 10 ng/ml IL-1β and 100 ng/ml TNF-α for 18 hours, 300 nM carbachol): fully efficacious | relaxation of tracheal rings, vehicle-pretreated tissues ([1]; 300 nM carbachol): fully efficacious | potency in cytokine-pretreated versus vehicle-pretreated tissues [1]: slightly more potent in cytokine-pretreated tissues | log10AUC (penh) ([2]; 5 μmol/kg intratracheal): 1.8127 | log10AUC (penh) ([2]; 15 μmol/kg intraperitoneal): 2.0096 | log10AUC (penh) ([2]; 15 μmol/kg oral): 2.2309 | reduction in airway hyperresponsiveness ([2]; i.p. route, compared to oral dosing): enhanced reduction | bronchodilatory response ([2]; intratracheal administration): robust bronchodilatory response | reduction in airway hyperresponsiveness ([2]; oral doses): did not yield a significant reduction | eosinophils in BALF ([3]; dosed i.t. to day 30, anti-inflammatory dosing paradigm, FIG. 12): reduction of eosinophils | IL-1β levels in BALF (LPS-challenged mice): reduction | LPS-induced pulmonary neutrophilia influx (LPS-challenged mice; intratracheal dosing one hour prior to LPS challenge, FIG. 17): significant reduction; also recorded: dose-dependent inhibition | oral bioavailability ([4]; oral dosing): poor oral bioavailability | AUC (0-last) [4, 6]: BLQ | Cmax [4, 6]: BLQ | Tmax [4, 6]: BLQ | Vz_F [4, 6]: BLQ | t½ [4, 6]: BLQ

CS(=O)(=O)Nc1cccc(CN2CC[C@@H](Nc3cccc4cnccc34)C2)c1 [Compound 2.038, (R)-N-(3-((3-(isoquinolin-5-ylamino)pyrrolidin-1-yl)methyl)phenyl)methanesulfonamide]
chemotactic response of murine eosinophils (murine eosinophils): inhibited | chemotactic response of human eosinophils (human eosinophils): inhibited | Percentage of carbachol-induced contraction at 1 μM compound, Avg % (rat trachea rings): 57.2% | Percentage of carbachol-induced contraction at 10 μM compound, Avg % (rat trachea rings): 10.2% | IC50 (rat trachea rings): 272 nM | Trachael Ring Contraction, % (rat trachea rings): 57% | log10AUC (penh) ([2]; 15 μmol/kg oral): 2.0813 | reduction in airway hyperresponsiveness ([2]; oral doses): statistically significant reduction | concentration of IL-5 in BALF ([3]; 15 μmol/kg/oral on days 27 to 31, FIG. 13): reduced levels | concentration of Eotaxin in BALF ([3]; 15 μmol/kg/oral on days 27 to 31, FIG. 14): reduced levels | concentration of IL-13 in BALF ([3]; 15 μmol/kg/oral on days 27 to 31, FIG. 15): reduced levels | eosinophils per ml of BALF (airway eosinophil infiltration) ([3]; dosed orally to day 31, anti-inflammatory dosing paradigm, FIG. 11): reduced | airway hyperreactivity to methacholine ([5]; oral 15 μMol/kg once a day during days 27 to 31, methacholine on Day 32): prevention of airway hyperreactivity | plasma and lung tissue concentrations after oral dosing ([4]; oral dosing, refers to Table 13 and Table 15): high plasma and lung tissue concentrations

NC(=O)Cn1ccc2cc(CN3CC[C@@H](Nc4cccc5cnccc45)C3)ccc21 [Compound 2.059, (R)-2-(5-((3-(isoquinolin-5-ylamino)pyrrolidin-1-yl)methyl)-1H-indol-1-yl)acetamide]
airway hyperreactivity ([5]; intratracheal once a day, days 27 to 30 (1.091) or 27 to 31): prevention of airway hyperreactivity | IL-1β levels in BALF (LPS-challenged mice): reduction | Percent inhibition, ERK1 (ERK1; 1 μM test compound): 37% | Percent inhibition, ERK1 (ERK1; 10 μM test compound): 4% | Percent inhibition, ERK2 (ERK2; 1 μM test compound): 56% | Percent inhibition, ERK2 (ERK2; 10 μM test compound): 12%
